Active and inactive are the calls of the source. No cut-off for these calls is given here.
Experiments:
[1] = system: Stenotrophomonas maltophilia; assay: Antibacterial activity against Stenotrophomonas maltophilia K279a assessed as bacterial growth inhibition at 50 uM incubated for 20 hrs by broth microdilution method; type: functional, organism-based
[2] = system: Stenotrophomonas maltophilia; assay: Inhibition of biofilm formation in Stenotrophomonas maltophilia K279a at 50 uM incubated for 24 hrs by crystal violet staining based analysis; type: functional, organism-based
[3] = system: Pseudomonas aeruginosa; assay: Antibacterial activity against eYFP labeled Pseudomonas aeruginosa PAO1 assessed as inhibition of bacterial growth at 50 uM incubated for 20 hrs by broth microdilution method relative to control; type: functional; design: scale not given: the % may be the effect or the level left
[4] = system: Pseudomonas aeruginosa; assay: Antibacterial activity against Pseudomonas aeruginosa PAR7244 assessed as bacterial growth inhibition at 50 uM incubated for 20 hrs by broth microdilution method; type: functional, organism-based
[5] = system: Staphylococcus aureus; assay: Inhibition of biofilm formation in Staphylococcus aureus Newman ATCC 25904 at 50 uM incubated for 24 hrs by crystal violet staining based assay relative to control; type: functional
[6] = system: Pseudomonas aeruginosa; assay: Inhibition of biofilm formation in eYFP labeled Pseudomonas aeruginosa PAO1 at 50 uM incubated for 24 hrs by crystal violet staining based analysis relative to control; type: functional
[7] = system: Candida albicans; assay: Inhibition of biofilm formation in RFP-expressing Candida albicans M2396 at 50 uM incubated for 24 hrs by crystal violet staining based analysis relative to control; type: functional
[8] = system: Candida albicans; assay: Inhibition of biofilm formation in developmental phase of Candida albicans M2396 at 50 uM incubated for 24 hrs by crystal violet staining based analysis relative to control; type: functional
[9] = system: HK-2; assay: Cytotoxicity against human HK-2 cells assessed as reduction in cell survival at 50 uM incubated for 24 to 48 hrs by MTT assay; type: toxicity, cell-based; conditions: hk-2, 50 µM, time 24-48 hrs
[10] = Toxicity in Galleria mellonella larvae assessed as reduction in animal survival at 100 uM
[11] = Toxicity in Galleria mellonella larvae assessed as signs of melanization at 100 uM
[12] = system: Pseudomonas aeruginosa; assay: Antibacterial activity against Pseudomonas aeruginosa PAR7244 infected in Galleria mellonella larvae assessed as increase in survival rate at 50 uM measured every 24 hrs (reference value: 48 %); type: functional
[13] = system: Salmonella typhimurium; assay: Antibiofilm activity against Salmonella enterica subsp. enterica serovar Typhimurium assessed as reduction in biofilm formation at 50 uM incubated for 24 hrs by crystal violet staining based assay relative to control; type: functional; design: scale not given: the % may be the effect or the level left
[14] = system: Salmonella typhimurium; assay: Antibacterial activity against Salmonella enterica subsp. enterica serovar Typhimurium assessed as bacterial growth inhibition at 50 uM incubated for 20 hrs by broth microdilution method; type: functional, organism-based
[15] = system: Candida albicans; assay: Inhibition of biofilm formation in Candida albicans M2396 at 50 uM incubated for 24 hrs by crystal violet staining based analysis; type: functional, organism-based
[16] = system: Candida albicans; assay: Antibiofilm activity against Candida albicans M2396 at 50 uM incubated for 24 hrs by confocal laser-scanning microscopy; type: functional, organism-based
[17] = system: Candida albicans; assay: Antibiofilm activity against Candida albicans M2396/Pseudomonas aeruginosa PA01 dual-species at 50 uM incubated for 24 hrs by confocal laser-scanning microscopy; type: functional, organism-based
[18] = system: Escherichia coli; assay: Antibiofilm activity against Escherichia coli ATCC 9637 assessed as reduction in biofilm formation at 50 uM incubated for 24 hrs by crystal violet staining based assay; type: functional, organism-based
[19] = system: Candida albicans; assay: Inhibition of biofilm formation in developmental phase of Candida albicans M2396 at 50 uM incubated for 24 hrs by crystal violet staining based analysis; type: functional, organism-based
[20] = system: Candida albicans; assay: Antifungal activity against RFP-expressing Candida albicans M2396 assessed as fungal growth inhibition at 50 uM incubated for 20 hrs by microplate reader analysis; type: functional, organism-based
[21] = system: Escherichia coli; assay: Antibacterial activity against Escherichia coli ATCC 9637 assessed as bacterial growth inhibition at 50 uM incubated for 20 hrs by broth microdilution method relative to control; type: functional; design: scale not given: the % may be the effect or the level left
[22] = system: Pseudomonas aeruginosa; assay: Antibiofilm activity against Pseudomonas aeruginosa PAO1 at 50 uM incubated for 24 hrs by confocal laser-scanning microscopy; type: functional, organism-based
[23] = system: Pseudomonas aeruginosa; assay: Antibiofilm activity against Pseudomonas aeruginosa PAR7244 assessed as reduction in biofilm formation at 50 uM incubated for 24 hrs by crystal violet staining based analysis relative to control; type: functional; design: scale not given: the % may be the effect or the level left

SMILES | Activity [1] | inhibition [2] | Activity [3] | Activity [4] | other results
O=C1C=C/C(=C(/Br)c2ccc(F)cc2)O1 | inactive | inactive | <=5% | inactive | 
O=C1C=CC(=C(c2ccccc2)c2ccccc2)O1 | inactive | inactive | <=5% | inactive | 
O=C1C=C(CBr)C(=O)O1 | inactive | inactive | <=5% | inactive | 
O=C1C=CC(=C(c2ccc(C(F)(F)F)cc2)c2ccc(C(F)(F)F)cc2)O1 | inactive | inactive | <=5% | inactive | 
COc1cccc(C(=C2C=CC(=O)O2)c2cccc(OC)c2)c1 | inactive | inactive | <=5% | inactive | inhibition at 50 µM [5]: 30%; inhibition at 50 µM [6]: 44%; inhibition at 50 µM [7]: 53%; inhibition at 50 µM [8]: 71%; Activity [9]: Non-Toxic; Activity [10]: Non-Toxic; Activity [11]: Non-Toxic; survival at 50 µM [12]: 72%
O=C1C=C/C(=C(/Cl)c2ccccc2)O1 | inactive | inactive | <=5% | inactive | 
COc1ccc(C(=C2C=CC(=O)O2)c2ccc(OC)cc2)cc1 | inactive | inactive | <=5% | inactive | inhibition at 50 µM [5]: 44%; inhibition at 50 µM [7]: 61%; inhibition at 50 µM [8]: 75%
O=C1C=CC(=C(Br)Br)O1 | inactive | inactive | <=5% | inactive | Activity [13]: 67%; Activity [14]: Active; inhibition [15]: Active; Activity [16]: Active; Activity [17]: Active; Activity [18]: inactive; inhibition [19]: Active; Activity [20]: Active
O=C1C=C/C(=C(\Cl)I)O1 | inactive | inactive | <=5% | inactive | Activity [13]: 59%; Activity [14]: Active; Activity [21]: 28%; inhibition at 50 µM [6]: 51%; inhibition at 50 µM [7]: 92%; inhibition at 50 µM [8]: 52%; Activity [16]: Active; Activity [22]: Active; Activity [17]: Active
O=C1C=C/C(=C(/Br)c2ccccc2)O1 | inactive | inactive | <=5% | inactive | 
COc1ccccc1/C(Br)=C1\C=CC(=O)O1 | inactive | inactive | <=5% | inactive | 
O=C1OC(=C(c2ccccc2)c2ccccc2)C=C1Br | inactive | inactive | <=5% | inactive | 
COc1ccccc1C(=C1C=CC(=O)O1)c1ccccc1OC | inactive | inactive | <=5% | inactive | inhibition at 50 µM [5]: 7%; inhibition at 50 µM [6]: 41%
O=C1C=C/C(=C(/Br)c2ccc([N+](=O)[O-])cc2)O1 | inactive | inactive | <=5% | inactive | 
CC1=CC(=O)OC1=C(Br)Br | inactive | inactive | 11% | inactive | inhibition at 50 µM [6]: 70%; inhibition at 50 µM [7]: 38%; Activity [9]: Toxic; Activity [10]: Non-Toxic; Activity [11]: Non-Toxic; Activity [23]: 44%
COc1ccc(C(=C2C=C(Br)C(=O)O2)c2ccc(OC)cc2)cc1 | inactive | inactive | <=5% | inactive | 

— ChEMBL document CHEMBL5352404, “Synthesis and evaluation of novel furanones as biofilm inhibitors in opportunistic human pathogens” (Eur J Med Chem, 2022)
